For series [1], the target named is T1, T. gondii (Tg) dihydrofolate reductase (Toxoplasma gondii, UniProt Q07422). To be noted: cited from earlier work; for IC50: read-out: IC50 against Tg DHFR.
The target of another series is T2, rat liver DHFR (Rattus norvegicus, UniProt Q920D2).
T2 construct: rat liver DHFR; from tissue; host or cells: rat liver
T2 sequence (Q920D2 1-187): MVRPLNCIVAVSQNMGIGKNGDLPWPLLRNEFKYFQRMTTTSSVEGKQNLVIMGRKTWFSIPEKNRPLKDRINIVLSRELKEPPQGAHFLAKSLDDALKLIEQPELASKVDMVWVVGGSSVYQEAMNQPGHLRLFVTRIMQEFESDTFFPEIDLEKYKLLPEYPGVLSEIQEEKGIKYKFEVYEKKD
In words: Standardized spectrophotometric DHFR inhibition assay, rat liver enzyme. It is filed as biochemical.

For series [2], the target named is P. carinii (Pc) dihydrofolate reductase (Pneumocystis carinii, UniProt P16184). In words: Standardized spectrophotometric DHFR inhibition assay, P. carinii enzyme. Particulars: for IC50: Pc DHFR. It is filed as biochemical.
P. carinii (Pc) dihydrofolate reductase, sequence (P16184 whole entry): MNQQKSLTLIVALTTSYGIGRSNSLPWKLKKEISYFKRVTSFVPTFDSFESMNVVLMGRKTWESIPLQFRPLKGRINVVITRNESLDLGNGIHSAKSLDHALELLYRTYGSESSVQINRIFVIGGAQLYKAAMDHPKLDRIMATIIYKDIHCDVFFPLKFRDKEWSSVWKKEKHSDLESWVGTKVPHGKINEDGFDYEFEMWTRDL
The target of series [3] is T1, T. gondii (Tg) dihydrofolate reductase. The format is biochemical.
Series [4] concerns the target M. avium (Ma) dihydrofolate reductase (Mycobacterium avium, UniProt O30463). In words: biochemical.
Where [5] appears, read: relative to rat liver DHFR, 95% confidence limits in parentheses.

Structures are written as SMILES. Read-outs that look alike come from different tables or passages of the source.

M. avium (Ma) dihydrofolate reductase, sequence (O30463 1-181): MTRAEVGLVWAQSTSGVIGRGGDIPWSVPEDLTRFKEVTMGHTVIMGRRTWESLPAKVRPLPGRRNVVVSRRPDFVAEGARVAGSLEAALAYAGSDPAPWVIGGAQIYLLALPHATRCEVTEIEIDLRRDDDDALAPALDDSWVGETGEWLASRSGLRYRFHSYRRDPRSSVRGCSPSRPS
T1 sequence (Q07422 whole entry): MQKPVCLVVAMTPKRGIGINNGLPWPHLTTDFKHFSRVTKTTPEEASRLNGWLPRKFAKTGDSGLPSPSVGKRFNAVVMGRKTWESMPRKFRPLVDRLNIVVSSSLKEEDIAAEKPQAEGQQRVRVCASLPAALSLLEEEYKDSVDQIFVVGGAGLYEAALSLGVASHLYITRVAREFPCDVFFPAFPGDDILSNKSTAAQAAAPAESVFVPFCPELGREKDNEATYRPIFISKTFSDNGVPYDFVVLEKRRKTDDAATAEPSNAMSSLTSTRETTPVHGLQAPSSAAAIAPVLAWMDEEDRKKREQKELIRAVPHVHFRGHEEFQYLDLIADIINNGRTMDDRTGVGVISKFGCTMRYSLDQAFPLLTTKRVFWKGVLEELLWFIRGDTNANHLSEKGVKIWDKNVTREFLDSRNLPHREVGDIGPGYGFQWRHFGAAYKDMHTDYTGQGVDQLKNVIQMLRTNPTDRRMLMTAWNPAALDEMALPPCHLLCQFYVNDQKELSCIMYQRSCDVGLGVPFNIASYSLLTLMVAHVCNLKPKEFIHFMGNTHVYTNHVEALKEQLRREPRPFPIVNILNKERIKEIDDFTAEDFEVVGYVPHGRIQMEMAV

With `Nc1nc(N)c2nc(CN3c4ccccc4C=Cc4ccccc43)cnc2n1` [Compound 40], in series [1], the “SI against Tg DHFR” value is 40: R = N-Dibenz[b,f]azepinyl (IC50 = 0.043 μM, SI = 102)^3g.

Usually IC50 stands for the concentration that inhibits the measured activity by half. The term melting point denotes the temperature of the solid-liquid transition. Take `COc1ccc(C#CCCCCC(=O)O)cc1Cc1cnc(N)nc1N` [Compound 4]: the melting point fell in the range of 187 to 189 °C. The compound also yielded an IC50 against rat liver DHFR of 25 µM. Further, the IC50 in series [2] stood at 0.87 µM. Moreover, the midpoint of inhibition in series [3], the IC50, lay at 0.072 µM. In series [4], this compound showed an IC50 of 0.041 µM.

In the case of `COc1ccc(C#CCCCC(=O)O)cc1Cc1cnc(N)nc1N` [Compound 3], the melting point was in the range of 121 to 124 °C. Besides, the half-maximal inhibitory concentration (IC50) at rat liver DHFR was determined as 2.2 µM. Also, the IC50 in series [2] turned out to be 0.028 µM. Further, half-maximal inhibition in series [3] (IC50) required 0.032 µM. For the same compound, the half-inhibitory concentration (IC50) in series [4] (Ma DHFR) is 0.007 µM.

Turning to `COc1ccc(CCCCCCC(=O)O)cc1Cc1cnc(N)nc1N` [Compound 7], the 50% inhibitory concentration (IC50) against rat liver DHFR was 4.6 µM; in series [2] it was 0.53 µM; in series [3] it was 0.03 µM; in series [4], 0.089 µM.

As for `COc1ccc(OCc2cccc(C(=O)O)c2)cc1Cc1cnc(N)nc1N` [Compound 8, 2,4-Diamino-5-[2′-methoxy-5′-(3″-carboxybenzyloxy)benzyl]pyrimidine], the concentration for half-maximal inhibition (IC50) against rat liver DHFR stood at 19 µM; in series [2], 0.89 µM; in series [3] it was 0.6 µM; in series [4], 0.12 µM.

As to `CCc1nc(N)nc(N)c1-c1ccc(Cl)c(N=NN2CCOCC2)c1` [Compound 37], in series [1], the “SI against Tg DHFR” value was 37: R^1R^2 = morpholino (IC50 = 0.19 μM, SI = 140)^18 and the IC50 is 0.19 µM.

Compound `COc1ccc(CCCCC(=O)O)cc1Cc1cnc(N)nc1N` [Compound 5] registered a melting point of 134 to 137 °C. The IC50 against rat liver DHFR is 3.2 µM. Also, the 50% inhibitory concentration (IC50) in series [2] was 0.15 µM. The compound also displayed an IC50 in series [3] (Tg DHFR) of 0.058 µM. In addition, the concentration for half-maximal inhibition (IC50) in series [4] (Ma DHFR) stood at 0.035 µM.

For `COc1ccc(OCc2ccc(C(=O)O)cc2)cc1Cc1cnc(N)nc1N` [Compound 9, 2,4-Diamino-5-(2′-methoxy-5′-(4″-carboxybenzyloxy)benzyl]pyrimidine], the IC50 at rat liver DHFR was 21 µM; in series [3] (Tg DHFR) it was 2 µM; in series [4] (Ma DHFR), 0.06 µM.

With `COc1ccc(C#CCOc2ccccc2C(=O)O)cc1Cc1cnc(N)nc1N` [Compound 10, 2,4-Diamino-5-[2′-methoxy-5′-[3-(2″-carboxyphenoxy)propyn-1-yl]benzyl]pyrimidine], the concentration for half-maximal inhibition (IC50) at rat liver DHFR was 6.2 µM; in series [2], 2.3 µM; in series [3] (Tg DHFR), 0.5 µM; in series [4] it was 0.036 µM. In addition, the “Selectivity Index (SI) P. carinii” value in series [2] (setting [5]) is recorded as 2.7 (2.1-3.5). Also, the “Selectivity Index (SI) T. gondii” value in series [3] (setting [5]) is listed as 13 (9.3-17). In series [4], the “Selectivity Index (SI) M. avium” value is recorded as 170 (130-230).

Turning to `CCc1nc(N)nc(N)c1-c1ccc(Cl)c(N=NN(C)C)c1` [Compound 38], the IC50 in series [1] (literature compounds of Table 2, standardized assay conditions) is 0.31 µM. The “SI against Tg DHFR” value in series [1] (literature compounds of Table 2, Tg versus rat DHFR) is reported as 61.

Regarding `COc1ccc(OCCCCC(=O)O)cc1Cc1cnc(N)nc1N` [Compound 1b, reference compound], the 50% inhibitory concentration (IC50) stood at 0.11 µM in series [3] and 0.058 µM in series [4] (Ma DHFR).

On to `COc1cc(Cc2cnc(N)nc2N)cc(C#CCCCC(=O)O)c1OC` [Compound 49, 2,4-Diamino-5-[3′,4′-dimethoxy-5′-(5-carboxy-1-pentynyl)benzyl]-pyrimidine], for which the IC50 worked out at 5000 µM on rat liver DHFR, 0.001 µM in series [2] and 0.0024 µM in series [4].

Turning to `COc1ccc(C#CCCC(=O)O)cc1Cc1cnc(N)nc1N` [Compound 2], in series [3] (Tg DHFR), the 50% inhibitory concentration (IC50) was found to be 0.097 µM.

Regarding `COc1ccc(C#CCOc2cccc(C(=O)O)c2)cc1Cc1cnc(N)nc1N` [Compound 11, 2,4-Diamino-5-[2′-methoxy-5′-[3-(3″-carboxyphenoxy)-1-propynyl]benzyl]pyrimidine], the IC50 against rat liver DHFR came to 14 µM; in series [2] it was 5.6 µM; in series [3], 1.6 µM; in series [4], 0.057 µM.

With `COc1ccc(CCCCCC(=O)O)cc1Cc1cnc(N)nc1N` [Compound 6], the IC50 worked out at 4.1 µM at rat liver DHFR, 0.15 µM in series [2], 0.0084 µM in series [3] (Tg DHFR) and 0.016 µM in series [4] (Ma DHFR).

Values taken from US20060142315A1, “Substituted biaryl piperazinyl-pyridine analogues” (priority 2003, published 2006).
